This note sets out measurements from PMC7913925, “Design and Evaluation of a Polypeptide That Mimics the Integrin Binding Site for EDA Fibronectin to Block Profibrotic Cell Activity” (International Journal of Molecular Sciences, 2021).

Bridges are numbered along the chain shown (N, C = ends). Where no end group is shown, it is not given here.

In assay [1] the target is FN-RGD (RGD motif of fibronectin) (Homo sapiens, UniProt P02751). Description: Isothermal calorimetry, AF38Pep with FN-RGD. The assay is classed as binding. To be noted: 25 °C, pH 7. The method, then: (§1) Custom designed peptides were resuspended in sterile-filtered HEPES buffered saline (140 mM NaCl, 1.5 mM Na2HPO4, 50 mM HEPES; pH 7). The larger EDA-FN binding peptide was diluted to 15 µM, degassed and added to the calorimetry chamber well. Three smaller test peptides (fibronectin EDA-peptide, FN-EDA; fibronectin RGD-peptide, FN-RGD and collagen I RGD-peptide, COL-RGD) were diluted to 300 µM, degassed and each was separately loaded into the calorimetry injection needle. The chamber well temperature was kept consistent at 25 °C. Blank buffer was used to replace either the well peptide or the injection needle peptide to account for background heat generation. Isothermal titration calorimetry was performed using a MicroCal iTC200 (Malvern Panalytical, Malvern, UK) and dissociation constant (KD) and association constant (KA) were calculated using the one set of sites model fitting (with number of binding sites assumed to be 1) in MicroCal Origin Software v8.5 (Malvern Panalytical).
In general terms: ITC needs no label: the signal is the heat of the interaction.

Assay [2] concerns the target COL-RGD (RGD motif of collagen I) (Homo sapiens, UniProt P02452). Description: Isothermal calorimetry, AF38Pep with COL-RGD. The assay is classed as binding. To be noted: 25 °C, pH 7. The method, then: as §1
The subject of assay [3] is human HFL1 lung fibroblast cells, α-SMA mRNA. The assay is described as follows: α-SMA mRNA expression (qRT-PCR) in TGF-β1-treated HFL1. The format is cell-based. As to the method:
HFL1 cells were cultured in Kaighn’s modified Ham’s F-12 (F-12K) medium (Sigma-Aldrich) containing NaHCO3 and HEPES buffered to pH 7. Cells were grown to confluence in T75 culture flasks in the presence of 10% fetal bovine serum (FBS; Gibco, Thermo Fisher Scientific, Waltham, MA, USA). HFL1 cells were subcultured using 0.05% trypsin at a ratio of 1:3. NIH/3T3 cells were cultured in Dulbecco’s Modified Eagle Medium (DMEM; HyClone, Thermo Fisher Scientific) containing 100 U/mL penicillin and 100 μg/mL streptomycin. Cells were grown to confluence in T75 culture flasks in the presence of 10% FBS. NIH/3T3 cells were subcultured using 0.05% trypsin/EDTA at a ratio of 1:3. All cells were maintained at 37 °C and 5% CO2, and growth medium was replenished every 3 days until experimentation. Cells were growth-arrested in serum-free medium for 48 h before experiments, and all experiments were performed under serum-free conditions using cells between passages 3 and 8.
Reverse transcription (RT) and real-time quantitative PCR (qRT-PCR) were used to assess ACTA2/Acta2, Col1a1, Col3a1, Fn1, Eda-Fn1, Mmp9, Tgfb1, Ltbp1, Hic5, and Mrtfa mRNA expressions. Custom PCR primers were designed in-house (Table 2) and then synthesized by BGI (Beijing, China). […]
For orientation: Quantitative PCR measures a nucleic acid by following its amplification.

For assay [4], the system named is EDA-FN–ITGA4 interaction. The assay is described as follows: Co-IP of EDA-FN with ITGA4. The format is cell-based. The settings on record: 48 h, Co-IP with anti-ITGA4. The method, then:
(§2) Total protein was extracted from cells in RIPA lysis buffer containing 1% protease inhibitor cocktail, 1% phenylmethylsulfonyl fluoride, and 1% sodium orthovanadate (Santa Cruz Biotechnology, Santa Cruz, CA, USA). Protein was quantified by Micro BCA Protein Assay Kit (Thermo Fisher Scientific) before 7.5% SDS-PAGE and transfer to nitrocellulose. Membranes were blocked with 5% bovine serum albumin (BSA; Sigma-Aldrich)/0.5% Tween-20 (Sigma-Aldrich)/PBS for 1 h, RT, followed by incubation with primary antibodies diluted in 1% BSA/0.1% Tween-20/PBS, overnight at 4 °C. Primary antibodies were: anti-phosphoY204/Y187 ERK1/2 (1:1000); anti-ERK1/2 (1:1000); anti-phosphoY861 FAK (1:1000); anti-FAK (1:2000). Immunoblotting for anti-GAPDH (1:2500) was used as a protein loading control. Following wash steps, membranes were incubated in goat anti-rabbit IgG H&L secondary antibody (horseradish peroxidase, HRP conjugate, […]) (Abcam; 1:5000 dilution, 1% BSA/0.1% Tween-20/PBS). Detection was performed using Immobilon reagent (Merck Millipore, Burlington, MA, USA) and imaged using a Tanon 5500 Chemiluminescent Imaging System (Tanon, Shanghai, China).
(§3) A volume of 25 µg total protein from cell lysate in nondenaturing lysis buffer containing protease inhibitors was immunoprecipitated (IP) using anti-ITGA4 antibodies linked to protein A/G sepharose beads (Abcam). […]

Assay [5] concerns OPN–ITGA4 interaction. Description: Co-IP of OPN with ITGA4. The format is cell-based. To be noted: 48 h, Co-IP with anti-ITGA4. As to the method:
as §2, §3

In assay [6] the test system is FAK in NIH/3T3 fibroblasts. The assay is described as follows: Western blot FAK phosphorylation and total protein. The assay is classed as cell-based, mouse. To be noted: TGF-β1 10 ng/mL, AF38Pep 10 µg/mL. As to the method:
as §2
For orientation: In western blotting, separated proteins are transferred to a membrane and probed.

Assay [7] relates to Hic5 mRNA in NIH/3T3 fibroblasts. Description: qRT-PCR Hic5 mRNA. The format is cell-based, mouse. The settings on record: 48 h, TGF-β1 10 ng/mL. As to the method: (§4) Reverse transcription (RT) and real-time quantitative PCR (qRT-PCR) were used to assess ACTA2/Acta2, Col1a1, Col3a1, Fn1, Eda-Fn1, Mmp9, Tgfb1, Ltbp1, Hic5, and Mrtfa mRNA expressions. Custom PCR primers were designed in-house (Table 2) and then synthesized by BGI (Beijing, China). Cells were grown in 6-well culture plates and washed with phosphate buffered saline (PBS) before lysis with TRIzon Reagent (CWBio, Beijing, China) and total RNA purification according to the manufacturer’s protocol. Reverse transcription was carried using the TransScript First-Strand cDNA Synthesis SuperMix kit according to the manufacturer’s protocol (TransGen, Beijing, China), using the random primer method for the initiation of cDNA synthesis. Nuclease-free H2O replaced the RNA sample to serve as a negative control for the reverse transcription reaction. For qRT-PCR, 10 µL 2× TransStart Top Green qPCR SuperMix was added to each well of a 96-well PCR plate containing 0.4 µL forward primer, 0.4 µL reverse primer, […], and nuclease-free water to a total volume of 20 µL. The qRT-PCR reaction was completed using a CFX96 Real-Time PCR Detection System (Bio-Rad Laboratories, Hercules, CA, USA). Amplification used the following parameters: 94 °C for 30 s, followed by 40 cycles of 94 °C for 5 s, 55 °C for 15 s, 72 °C for 10 s, and then a dissociation stage (melt-curve). […]

The test system of assay [8] is Fn1 mRNA. Description: qRT-PCR Fn1 mRNA. The format is cell-based, mouse. As to the method:
as §4

With “VMPYISTTPAKPCTSENCGNSWYGGFKSKNENKIYFIN (disulfide 13-18 (inferred)) [AF38Pep]”, the “ITC interaction (thermogram)” value in assay [1] was “not between AF38Pep and FN-RGD or COL-RGD”; in assay [2] it was “not between AF38Pep and FN-RGD or COL-RGD”. Further, the “attenuation of TGF-β1-induced α-SMA mRNA” value in assay [3] (HFL1, 48 h, 0.1–10 µg/mL) is “significantly reduced by 0.1–10 µg/mL peptide at 48 h”; in assay [3] (HFL1, 72 h, 10 µg/mL), “only 10 µg/mL was sufficient for inhibition of expression at 72 h”. The “EDA-FN–ITGA4 interaction” value in assay [4] was “specifically inhibited EDA-FN–ITGA4 interactions”. Besides, the “OPN–ITGA4 binding” value in assay [5] is on record as “did not influence OPN–ITGA4 binding”. Also, the FAK phosphorylation entry was “significantly suppressed” in assay [6] (1 h) and “significantly less activation” in assay [6] (12 h). In assay [6] (12 h), the “total FAK protein” value is given as “marginally reduced”. Also, the “HIC5 mRNA expression” value in assay [7] is on record as “attenuated”. Further, the “fibronectin mRNA expression” value in assay [8] (72 h, TGF-β1 + AF38Pep) was “all inhibited”; in assay [8] (by 48 h, vs TGF-β1-only) it was “significant attenuation”.
